Test results: US20140242707A1, “Compositions and Methods for Diagnosing Hypercoagulability and Hypocoagulability” (Philadelphia Health & Education Corporation d/b/a Drexel …, priority 2011, published 2014)

System: Pooled normal plasma
Assay: Thrombelastography of tissue factor-activated pooled normal plasma (Example 1)
Type: biochemical, human
Procedure: Pooled normal plasma (George King Bio-Medical, Overland Park, Kans., USA) anticoagulated with sodium citrate was utilized for experimentation. The lot of plasma used for all experimentation was #1853, with a prothrombin time of 12.3 sec, an activated partial thromboplastin time of 29.3 sec, and a fibrinogen concentration >250 mg/dl. The final volume for all subsequently described plasma sample mixtures was 359.2 μl. Sample composition consisted of 322 μl of plasma; 10 μl of tissue factor reagent (0.1% final concentration in dH2O; Instrumentation Laboratory, Lexington, Mass., USA), 3.6 μl of dH2O or dH2O containing the organic reductant phenylhydroxylamine (PHA, 0-30 mM final concentration, Sigma-Aldrich, Saint Louis, Mo., USA), 3.6 μl of dimethyl sulfoxide (DMSO) or DMSO with CORM-2 (0-400 μM final concentration; Sigma-Aldrich) and 20 μl of 200 mM CaCl2. PHA was chosen as the agent to convert fibrinogen-associated, heme-bound Fe^+2 to an Fe^+3 state (1978, Castro et al., Biochemistry 17:225-231; 1986, Harrison and Jollow, J Pharmacol Exp Ther 238:1045-1054; 1987, Harrison and Jollow, Mol Pharmacol 32:423-431; 1999, Ciccoli et al., Toxicol Lett 110:57-66). Stock solutions of CORM-2 were made just before each experiment. Tissue factor stock solution was kept on ice prior to use and was remade every two hours.
Plasma sample mixtures were placed in a disposable cup in a computer-controlled thrombelastograph hemostasis system (Model 5000, Haemoscope Corp., Niles, Ill., USA), with addition of CaCl2 as the last step to initiate clotting. Data were collected for 15 min at 37° C. Given that final clot strength is the sine quo non of fibrinogen concentration in plasma (2005, Nielsen et al., Acta Anaesthesiol Scand 49:222-231), and that elastic modulus (G, dyne/cm^2) is a measure of strength that can be determined by all commercially available thrombelastographs/thromboelastometers, G values were subsequently recorded for all samples.
Additional elastic modulus-based parameters previously described were determined for some of the experiments (2009, Nielsen et al., Fibrinolysis 20: 377-380; Nielsen et al., in press, Fibrinolysis; 2005, Nielsen et al., Acta Anaesthesiol Scand 49: 222-231; 2009, Nielsen et al., Blood Coagul Fibrinolysis 20: 448-455). The nomenclature used to describe these phenomena is as follows:
Time to maximum rate of thrombus generation (TMRTG): This is the time interval (min) observed prior to maximum speed of clot growth.
Maximum rate of thrombus generation (MRTG): This is the maximum velocity of clot growth observed (dynes/cm^2/sec).
Total Thrombus Generation (TTG): This is the total area under the velocity curve during clot growth (dynes/cm^2), representing the amount of clot strength generated during clot growth.
Thrombelastographic data are presented as mean±SD. Analyses of the effects of PHA before and after CORM-2 addition to plasma were conducted with one way analysis of variance with Holm-Sidak post hoc test (SigmaStat 3.1, Systat Software, Inc., San Jose, Calif., USA). Comparison between plasma exposed to 10 or 30 mM PHA was performed with an unpaired Student's t-test. The plasmatic strength response to increasing concentrations of CORM-2 was analyzed with one way analysis of variance with Holm-Sidakpost hoc test. Graphical representation of the data was generated with commercially available software (Origin 7.5, OriginLab Corp., Northampton, Mass., USA). A P value of <0.05 was considered significant.

Row | SMILES | elastic modulus (G), concentration-response (0-200 μM CORM-2, 5 min, no PHA) | MRTG (100 μM CORM-2) [dynes/cm^2/sec] | TMRTG (100 μM CORM-2) [min] | TTG (100 μM CORM-2) [dynes/cm^2] | elastic modulus (G) (100 μM CORM-2 vs unexposed plasma) | difference in G, 200 μM vs 100 μM CORM-2 (no PHA) [%] | elastic modulus (G) (plasma exposed to 30 mM PHA 2 min, then 100, 200 or 400 μM CORM-2 5 min) | elastic modulus (G) (PHA 10 mM 2 min prior to 100 μM CORM-2) | MRTG (PHA 10 mM alone) [dynes/cm^2/sec] | TMRTG (PHA 10 mM alone) [min] | TTG (PHA 10 mM alone) [dynes/cm^2] | elastic modulus (G) (PHA 10 mM alone) | elastic modulus (G) (PHA 30 mM added 5 min after 100 μM CORM-2) | MRTG (PHA 30 mM alone) [dynes/cm^2/sec] | TMRTG (PHA 30 mM alone) [min] | TTG (PHA 30 mM alone) [dynes/cm^2] | elastic modulus (G) (PHA 30 mM alone) | elastic modulus (G), reduction of CORM-2 mediated increase (PHA 1 or 5 mM 2 min prior to 100 μM CORM-2) | elastic modulus (G) (PHA 10 or 20 mM added 5 min after 100 μM CORM-2)
1 | [C-]#[O+].[C-]#[O+].[C-]#[O+].[C-]#[O+].[C-]#[O+].[C-]#[O+].[Cl][Ru][Cl].[Cl][Ru][Cl] [CORM-2, tricarbonyldichlororuthenium (II) dimer] | sigmoidal increase | 12.4 ± 1.4 | 2.46 ± 0.15 | 272 ± 21 | significantly increased | 10.1 | no significant increase |  |  |  |  |  |  |  |  |  |  |  | 
2 | ONc1ccccc1 [PHA, phenylhydroxylamine] |  |  |  |  |  |  |  | significantly smaller than plasma not exposed to either compound | 3.6 ± 0.9 | 3.59 ± 0.60 | 99 ± 11 | less than the other three conditions | not different from plasma not exposed to either compound | 3.9 ± 0.8 | 3.91 ± 0.70 | 106 ± 8 | significantly less than the other three conditions | little effect | negligible effects
